According to patent US20240002344A1, “COMPOUNDS, COMPOSITIONS AND METHODS FOR HISTONE LYSINE DEMETHYLASE INHIBITION” (FibroGen, Inc., priority 2020, published 2024):

How the values were obtained:
recombinant human KDM5B = target: T1, recombinant human KDM5B (Homo sapiens, UniProt Q9UGL1); experiment: 14CO2 capture enzymatic assay (decarboxylation of [1-14C] αKG), KDM5B; assay type: biochemical; settings: 10 μM [1-14C] αKG, 90 μM non-labeled αKG, 50 μM peptide substrate, 37° C., 1 hour, final 1% DMSO
T1 sequence (Q9UGL1 374-755 limits assumed): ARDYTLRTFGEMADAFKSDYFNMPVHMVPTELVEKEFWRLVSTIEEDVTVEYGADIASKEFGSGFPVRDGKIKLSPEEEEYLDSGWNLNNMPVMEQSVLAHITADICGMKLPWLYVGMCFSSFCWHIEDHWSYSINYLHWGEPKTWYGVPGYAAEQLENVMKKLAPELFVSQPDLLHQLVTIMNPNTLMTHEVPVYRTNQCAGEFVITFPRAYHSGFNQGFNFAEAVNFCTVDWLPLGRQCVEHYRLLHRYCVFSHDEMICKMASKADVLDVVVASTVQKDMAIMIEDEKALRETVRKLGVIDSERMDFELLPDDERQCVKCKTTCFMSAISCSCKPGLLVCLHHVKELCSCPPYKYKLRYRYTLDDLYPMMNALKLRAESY
Method: (§1) Enzymatic activity was determined based on the capture of ^14CO2 released by the decarboxylation of [1-^14C] αKG (Zhang et al., Anal. Biochem., 1998, vol. 271, pp. 137-142). [1-^14C]alphaketoglutarate (αKG) was from Perkin-Elmer, H3K4me3 and H3K9me3 peptides were from Mimotopes. All other reagents were from Sigma. Reaction mixtures included the following components: Fe(SO4), [1-^14C] αKG, non-labeled αKG, ascorbate, peptide-substrate (H3K4me3: H-ARTK(me3)QTARKSTGGKAPRKQLA-OH. H3K9me3: H-ARTKQTARK(me3)STGGKAPRKQLA-OH), NaCl, Tween-20 and catalase in 25 mM HEPES buffer, pH 7.4. The enzymatic reactions were initiated by addition of recombinant human KDM5B or KDM4A enzyme (truncated enzyme produced in house by method and using sequence disclosed in Ng et al, Nature 448:87-91, 2007). The reactions were performed in 96-well microtiter plates (20 μL total assay volume) (Greiner #650201). ^14CO2 was captured on a glass fiber filter paper (Cat. No. IH-201-A, Inotech Biosystems International) soaked with saturated Ba(OH)2 that was laid on top of the 96-well plate. A microtiter plate sealer film (Thermal Seal cat #T7961100) was applied to the filter paper. The plate and filter paper were sandwiched between two custom made aluminum plates (Advanced Component Manufacturing, Burlingame, CA) and transferred to a 37° C. oven and allowed to incubate for 1 hour. After incubation, the filter paper was dried in a 103° C. oven for 40-60 minutes. To determine percent turnover, aliquots of the reaction mixture were spotted onto the filter paper and the filter paper was dried again. The dry filter paper was exposed to a storage phosphor screen for 24-72 hours and the images recorded using a Typhoon FLA 7000 Imager (Amersham Biosciences, Piscataway, NJ). Integrated spot intensities corresponding to control reactions lacking the enzyme were subtracted from integration results for enzyme containing reactions and data were converted to enzyme dependent percent ^14CO2 release. All enzymatic reactions were run in duplicates.
(§2) For IC50 determination, a 3-fold dilution series of compound was prepared and added to the reaction mixture (final 1% DMSO, v/v) prior to enzyme addition. The final reagent concentrations were: 10 μM Fe(SO4), 10 μM [1-^14C] αKG, 90 μM non-labeled αKG, 2 mM ascorbate, 50 μM peptide substrate, 75 mM NaCl, 0.01% Tween-20 and ˜2 units/μL catalase. IC50s were determined by non-linear fitting using Grafit version 7.0.

recombinant human KDM4A = target: T2, recombinant human KDM4A (Homo sapiens, UniProt O75164); experiment: 14CO2 capture enzymatic assay (decarboxylation of [1-14C] αKG), KDM4A; assay type: biochemical; settings: 10 μM [1-14C] αKG, 90 μM non-labeled αKG, 50 μM peptide substrate, 37° C., 1 hour, final 1% DMSO
T2 construct: made in house
T2 sequence (O75164 1-359 limits assumed): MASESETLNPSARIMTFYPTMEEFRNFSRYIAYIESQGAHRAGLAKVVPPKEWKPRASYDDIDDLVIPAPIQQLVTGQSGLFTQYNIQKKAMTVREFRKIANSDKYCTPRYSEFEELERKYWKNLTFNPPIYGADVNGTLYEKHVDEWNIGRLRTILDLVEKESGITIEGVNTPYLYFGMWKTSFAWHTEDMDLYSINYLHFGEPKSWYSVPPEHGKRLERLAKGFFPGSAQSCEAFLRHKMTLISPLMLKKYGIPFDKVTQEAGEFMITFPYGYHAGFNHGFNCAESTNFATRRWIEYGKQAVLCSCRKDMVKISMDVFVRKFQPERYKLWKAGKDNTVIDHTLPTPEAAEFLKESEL
Method: as §1, §2

IC50 (recombinant human KDM5B) [nM]	IC50 (recombinant human KDM4A) [nM]	SMILES
60	12000	N#Cc1cc(Cc2cccc3ccccc23)nc(C(=O)CCC(=O)O)c1O [Example 34, 4-(4-Cyano-3-hydroxy-6-naphthalen-1-ylmethyl-pyridin-2-yl)-4-oxo-butyric acid]
70	3700	Cc1ccccc1Cc1cc(C#N)c(O)c(C(=O)CCC(=O)O)n1 [Example 36, 4-[4-Cyano-3-hydroxy-6-(2-methyl-benzyl)-pyridin-2-yl]-4-oxo-butyric acid]
60	> 40000	Cc1cccc(Cc2cc(C#N)c(O)c(C(=O)CCC(=O)O)n2)c1 [Example 37, 4-[4-Cyano-3-hydroxy-6-(3-methyl-benzyl)-pyridin-2-yl]-4-oxo-butyric acid]
120	> 40000	Cc1ccc(Cc2cc(C#N)c(O)c(C(=O)CCC(=O)O)n2)cc1 [Example 38, 4-[4-Cyano-3-hydroxy-6-(4-methyl-benzyl)-pyridin-2-yl]-4-oxo-butyric acid]
150	22000	N#Cc1cc(Cc2ccccc2C(F)(F)F)nc(C(=O)CCC(=O)O)c1O [Example 41, 4-[4-Cyano-3-hydroxy-6-(2-trifluoromethyl-benzyl)-pyridin-2-yl]-4-oxo-butyric acid]
210	32000	N#Cc1cc(Cc2cccc(F)c2)nc(C(=O)CCC(=O)O)c1O [Example 42, 4-[4-Cyano-6-(3-fluoro-benzyl)-3-hydroxy-pyridin-2-yl]-4-oxo-butyric acid]
150	37000	N#Cc1cc(Cc2ccccc2F)nc(C(=O)CCC(=O)O)c1O [Example 43, 4-[4-Cyano-6-(2-fluoro-benzyl)-3-hydroxy-pyridin-2-yl]-4-oxo-butyric acid]
430	13000	N#Cc1ccccc1Cc1cc(C#N)c(O)c(C(=O)CCC(=O)O)n1 [Example 46, 4-[4-Cyano-6-(2-cyano-benzyl)-3-hydroxy-pyridin-2-yl]-4-oxo-butyric acid]

The remaining lines, values behind:

SMILES	IC50 (recombinant human KDM5B) [nM]	IC50 (recombinant human KDM4A) [nM]
N#Cc1cc(Cc2cc(Cl)cc(Cl)c2)nc(C(=O)CCC(=O)O)c1O [Example 31, 4-[4-Cyano-6-(3,5-dichloro-benzyl)-3-hydroxy-pyridin-2-yl]-4-oxo-butyric acid]	230	> 40000
N#Cc1cc(Cc2c(Cl)cccc2Cl)nc(C(=O)CCC(=O)O)c1O [Example 32, 4-[4-Cyano-6-(2,6-dichloro-benzyl)-3-hydroxy-pyridin-2-yl]-4-oxo-butyric acid]	240	12000
N#Cc1cc(CC2CCCCC2)nc(C(=O)CCC(=O)O)c1O [Example 33, 4-(4-Cyano-6-cyclohexylmethyl-3-hydroxy-pyridin-2-yl)-4-oxo-butyric acid]	420	> 40000
N#Cc1cc(C(F)(F)F)nc(C(=O)CCC(=O)O)c1O [Example 35, 4-(4-Cyano-3-hydroxy-6-trifluoromethyl-pyridin-2-yl)-4-oxo-butyric acid]	50	12000
N#Cc1cc(Cc2ccc(C(F)(F)F)cc2)nc(C(=O)CCC(=O)O)c1O [Example 39, 4-[4-Cyano-3-hydroxy-6-(4-trifluoromethyl-benzyl)-pyridin-2-yl]-4-oxo-butyric acid]	130	> 40000
N#Cc1cc(Cc2ccc(F)cc2)nc(C(=O)CCC(=O)O)c1O [Example 40, 4-[4-Cyano-6-(4-fluoro-benzyl)-3-hydroxy-pyridin-2-yl]-4-oxo-butyric acid]	60	17000
N#Cc1ccc(Cc2cc(C#N)c(O)c(C(=O)CCC(=O)O)n2)cc1 [Example 44, 4-[4-Cyano-6-(4-cyano-benzyl)-3-hydroxy-pyridin-2-yl]-4-oxo-butyric acid]	230	> 40000
N#Cc1cccc(Cc2cc(C#N)c(O)c(C(=O)CCC(=O)O)n2)c1 [Example 45, 4-[4-Cyano-6-(3-cyano-benzyl)-3-hydroxy-pyridin-2-yl]-4-oxo-butyric acid]	540	> 40000
